Two substances from US7576177B2, “Hsp peptides and analogs for modulation of immune responses via antigen presenting cells” (Andromeda Biotech Ltd., priority 2002, dated 2009) can be followed below.

For assay [1], the system named is BALB/c DO.11.10 bone marrow cells cultured for dendritic cells, cocultured with DO.11.10 T cells. The assay can be described thus: Education of mouse dendritic cells and stimulation of T-cells, cytokine content of supernatant. Type of assay: cell-based. The protocol: Whelan et al. (J. Immunol 164, 6453-6460, 2000) addressed the problem in mice by an experiment in which mouse bone marrow cells were grown for 6 days in culture with GM-CSF to give immature dendritic cells. These dendritic cells were then incubated overnight with LPS (known to drive cells to DC1) or with a nematode antigen. The reason for the choice of nematode antigen was that injection of this antigen in vivo gives rise to a Th2 response in animals. After this so-called “education” of the dendritic cells, they were washed and subsequently incubated with naive T cells in the presence of antigenic stimulus. The experiment was possible because of the use of transgenic mice in which all the T cells respond to the same peptide (OVA323-339) which absolves the system from any question of bias of the T cell response at the level of the T cells. Any bias should be a consequence of the “education” of the dendritic cells. After three days of incubation the cytokine responses produced by the T cells, were measured by ELISA. […] In contrast, nematode antigen incubation gave rise to more IL-4 (Th2) than did controls while the LPS incubation inhibited the IL4 response. Therefore, the nematode antigen was said to drive cells to DC2. A similar method was used for testing the compounds of the present invention: • 1. Bone marrow cells were extracted from the leg bones of DO.11.10 mice transgenic for the TcR. All cells from these mice respond to the OVA peptide ([…]). • 2. Bone marrow cells were plated at 10^6 cells/ml in 100 mm diameter tissue culture petri dishes in Iscove's medium supplemented with 10% FCS, […], 1 mM sodium pyruvate, penicillin/streptomycin (according to manufacturer's recommendations), non-essential amino acids, 50 μM β-mercaptoethanol and 10 ng/ml mGM-CSF. • 3. After 4 days, the medium was carefully removed and replaced with fresh medium • 4. After 6 days, the non-adherent cells were harvested and used as immature dendritic cells • 5. The immature dendritic cells are plated at 1×10^6 cells/ml, 1 ml/well in 24 well plates in the above medium with various reagents added at various concentrations and incubated overnight. This is the stage in which the dendritic cells are “educated” • 6. The next day the cells were harvested and washed 3 times then resuspended at 5×10^4 cells/ml in 1 ml of the above medium but without the addition of GM-CSF to be cocultured with T cells • 7. […] 5×10^5 T cells were cultured with the dendritic cells from step 6 in the presence of various concentrations of the OVA peptide (0, 0.3 nM, 3 nM and 30 nM). • 9. After 3 days PMA (50 ng/ml) and ionomycin (500 ng/ml) were added to further stimulate the cells. • 10. The next day the cell supernatants were collected and assayed for cytokine content (Interferon γ, IL4, IL-10 and IL-12).
The compound was tested for stimulation of DO.11.10 bone marrow cells according to the assay described above (Production and education of mouse dendritic cells and stimulation of T-cells).
BALB/c DO.11.10 bone marrow cells were cultured for dendritic cells and then stimulated with LPS 1 μg/ml, LPS 10 μg/ml, hsp60 3 μg/ml, hsp60 10 μg/ml, p277 5 μg/ml and p277 50 μg/ml. The cells were then transferred to wells with T cells from fresh BALB/c DO.11.10 mice and stimulated with OVA peptide at different concentrations (0, 0.3 nM, 3 nM, 30 nM). Supernatant was collected after 48 hours for assay. 30 μl was taken for IFN, 40 μl for IL4 and IL-10 and 50 μl for IL-12 assays. The results are presented in the following tables, as amount of cytokine (pg/ml), and in FIG. 1.

In assay [2] the test system is peripheral blood mononuclear cells cultured with GM-CSF and IL4 (dendritic cells). The assay can be described thus: Peripheral blood derived dendritic cells: secreted cytokines (IP-10, IL-8) and cell surface antigens (CD83, CD86). Type of assay: cell-based, human. How it is done:
The effect of the compositions of the present invention on peripheral blood derived dendritic cells, was tested according to a protocol described by Re, F. and Strominger, J. L. 2001. Toll-like receptor 2 (Tlr2) and Tlr4 differentially activate human dendritic cells. (J Biol Chem 276: 37692-9). According to this method immature dendritic cells derived from human peripheral blood are used. The outcome after incubating the cells with tested molecules is different if the stimulation is through the Toll 4 receptor or the Toll 2 receptor. According to the authors, Toll 2 signaling by stimulation with zymosan is associated with a Th2 kind of response (exemplified by IL-8) and Toll 4 signaling, such as obtained by LPS stimulation (exemplified by IP-10), with a Th1 type of response. The compositions of the present invention were tested using a similar assay system in order to check which stimulation type they induce. […] The increase in CD86 expression after exposure of APCs to Hsps or Hsp derived peptides is important since CD86 (B7.2) is an essential component of the immunological synapse formed between T cells and APC. This synapse consists of CD80 and CD86 on the side of the APC and CD28 and CD40 on the side of the T cell. T cell recognition of peptide on APC without the concurrent expression of CD86 gives rise to anergy instead of a T cell response. Therefore in order to produce a response all components must be present.
The assay was based on the protocol described by Re, F. and Strominger, J. L. 2001. Toll-like receptor 2 (Tlr2) and Tlr4 differentially activate human dendritic cells. (J. Biol Chem 276: 37692-9).
Peripheral blood mononuclear cells were prepared from leucocytes from blood lots obtained from the blood bank. The cells were plated at 10^8 cells/10 ml/Petri dish in RPMI medium including 10% FCS and allowed to adhere at 37° C. for 2 hours. At the end of this time, the non-adherent cells were washed off the plates with PBS and the adherent cells resuspended in fresh medium as before. The cells were then cultured for at least 8 days with the addition of GM-CSF and IL4 with the medium changed every 4 days. After this time, the cells were harvested and cultured overnight with LPS, zymosan or p277(Val^6-Va^11). The next day, the supernatant was collected for assay of the secreted cytokines (IP-10 and IL-8) and the cells were harvested for investigation of the cell surface antigens (CD83, CD86). CD83 is an antigen characteristic of dendritic cells. […] The second marker, CD86 (B7.2) is characteristic of mature dendritic cells. The marker CD86 is an essential component of the immunological synapse formed between T cells and APC. This synapse consists of CD80 and CD86 on the side of the APC and CD28 and CD40 on the side of the T cell. This is of course in addition to the specific recognition between the T cell receptor and peptide held in the MHC of the APC. T cell recognition of peptide on APC without the concurrent expression of CD86 gives rise to anergy instead of a T cell response.

Another assay deals with mouse monocyte line J774. Description: Secretion of oxygen free radicals (oxidative burst) from mouse monocyte line. Type of assay: cell-based. The settings on record: J774, FIG. 5.
[3] abbreviates: compared with non-exposed dendritic cells.
Setting [4] is: dendritic cells educated with 1 μg/ml, 0.3 nM Ova peptide.
[5] abbreviates: dendritic cells educated with 10 μg/ml, 0.3 nM Ova peptide.

On to “lipopolysaccharide [LPS, reference compound]”, for which, in assay [1] (setting [3]), the “IFN gamma produced by T cells after treatment of dendritic cells (in words)” value is on record as “increased IFN gamma” and the “IL-4 produced by T cells after exposure of dendritic cells (in words)” value was “decreased IL4”. Moreover, in assay [1] (setting [4]), the “IL-4 secretion of T cells” value amounted to 11.07 pg/mL, the “IL-10 secretion of T cells” value was found to be 15.26 pg/mL and the “IL-12 secretion of T cells” value amounted to 90.00 pg/mL. For the same substance, the “IFN secretion of T cells” value in assay [1] (dendritic cells educated with 1 μg/ml, T cells stimulated with 0.3 nM Ova peptide) amounted to 328.33 pg/mL. Besides, in assay [1] (setting [5]), the “IFN secretion of T cells” value was determined as 478.89 pg/mL, the “IL-4 secretion of T cells” value came out at 1.07 pg/mL, the “IL-10 secretion of T cells” value was 75.48 pg/mL and the “IL-12 secretion of T cells” value was determined as 131.25 pg/mL. For the same substance, the “maturation: percentage of cells stained with anti-CD86” value in assay [2] (overnight stimulation, FIG. 3) was “increase of maturation”. In assay [2] (stimulus 10 ng/ml, overnight), this substance came in with an IL-8 of 3131 pg/mL and an IP-10 of 2520 pg/mL.
Turning to “VALLRVIPA (Homo sapien) [p277(442-450, Val^6Val^11)]”, in the assay on mouse monocyte line J774, the “inhibition of the oxidative burst (secretion of oxygen free radicals)” value is “effective”.
